The values below come from patent US10329304B2, “Compounds and methods for inhibition of hedgehog signaling and phosphodiesterase” (Vanderbilt University, priority 2014, dated 2019).

One data set relates to mouse cardiomyocytes. Nature of the data set: Contractility of isolated mouse cardiomyocytes. The class given is cell-based. The text has this: To observe whether the effects of eggmanone administration are cardiomyocyte specific or due to off target effects, the contractility of individual mouse cardiomyocytes and the tone of ascending/descending aorta was observed. In mouse cardiomyocytes, Egm caused a 50% increase in contractility over vehicle control (FIG. 32).

A further data set relates to hiPSC-CMs. Briefly: Contractile function of hiPSC-derived cardiomyocytes. Type of data set: cell-based, human.
The next data set concerns RSV. Briefly: RSV infection in mice (body weight, lung plaque assay). Conditions: 20 mg/kg IP 3× daily.
Another data set deals with mouse aorta. Briefly: Myography of cannulated mouse aorta. The conditions noted are these: listed as Egm. The source says: For myography, to test the vascular tone for presense of downstream or off target effects, mouse aorta was mounted and cannulated on a closed system. A physiological buffer (with respect to pH, CO2, and temperature) was circulated through the vessel.

The next data set relates to panel of 158 GPCRs. Briefly: Millipore-GPCR Panel (cells expressing Gα15, Ca2+ signaling). Type of data set: cell-based. As to the method:
(§1) Profiling assays were not performed in-house. Compounds were shipped to the following companies for possible target identification: Kinase profiling assays were performed by DiscoverRx (San Diego, Calif.) using a phage display model; GPCR profiling assays were performed by Millipore (St. Louis, Mo.) using in cells expressing Gα15, a promiscuous G protein that enhances GPCR coupling to downstream Ca^2+ signaling pathways; phosphatase profiling assay was performed by Millipore (Dundee, UK).

For a further data set, the system named is PDE4 isoforms. Nature of the data set: In vitro PDE dose-response assays (BPS Biosciences). The class given is biochemical. The conditions noted are these: isoforms of PDE4 A-D; read-out: IC50 range over PDE4 isoforms. The protocol:
In vitro PDE profiling and dose-response assays were performed by BPS Biosciences (San Diego, Calif.). Kinetic Mechanism of inhibition studies were conducted by Millipore (St. Louis, Mo.). In brief, the PDE assay measures fluorescent polarization of FAM-AMP as FAM-cAMP is converted to FAM-AMP by PDE), the binding agent.
A series of dilutions of the test compound were prepared with 10% DMSO in assay buffer and 5 μl of the dilution was added to a 50 μl reaction so that the final concentration of DMSO is 1% in all of reactions. All of the PDE enzymatic reactions were conducted in duplicate at room temperature for 60 minutes in a 50 μl mixture containing PDE assay buffer (10 mM Tris-HCl, pH7.4, 10 mM MaCl2, 0.05% Tween 20), 100 nM FAM-cAMP, a PDE enzyme and a test compound.
After the enzymatic reaction, 100 μl of a binding solution (1:100 dilution of the binding agent, which contains the nano beads that recognize FAM-AMP, with the binding agent diluent) was added to each reaction and the reaction was performed at room temperature for 60 minutes. Fluorescence intensity was measured at an excitation of 485 nm and an emission of 528 nm using a Tecan Infinite M1000 microplate reader. Assays done by Millipore were conducted similarly with changes noted below: […]

In the next data set the test system is panel of 442 kinases. Nature of the data set: Kinase profiling assays (DiscoverRx, phage display model). Type of data set: binding. As to the method:
as §1

The next data set has as its target PDE4D3-AKAP450 (Homo sapiens, UniProt Q08499). Nature of the data set: PDE4D3 localization and co-immunoprecipitation with AKAP450. Type of data set: cell-based. Conditions: 5 μM.
The target of a further data set is T1, PDE5A1 (Homo sapiens, UniProt O76074).
T1 construct: purchased BPS Biosciences (San Diego, Calif.)
Briefly: In vitro PDE assay. The class given is biochemical. The essentials:
(§2)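 Fluorescence polarization readout: FAM-AMP formed from 100 nM FAM-cAMP binds nano-bead agent (60 min) and is read at ex 485/em 528 nm. Enzyme reactions ran 60 min at room temperature in duplicate, Tris-HCl pH 7.4 buffer with 10 mM MgCl2 and 0.05% Tween 20, compound in 1% final DMSO.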

In another data set the target is T2, PDE6C (Homo sapiens, UniProt P51160).
T2 construct: purchased BPS Biosciences (San Diego, Calif.)
Briefly: In vitro PDE assay. Type of data set: biochemical. The procedure, abridged: as §2

For the next data set, the target named is T3, PDE3A (Homo sapiens, UniProt Q14432).
T3 construct: purchased BPS Biosciences (San Diego, Calif.)
Nature of the data set: In vitro PDE assay. Type of data set: biochemical. The essentials:
as §2

The next data set deals with T4, PDE7A1 (Homo sapiens, UniProt Q13946).
T4 construct: purchased BPS Biosciences (San Diego, Calif.)
T4 sequence (Q13946 whole entry): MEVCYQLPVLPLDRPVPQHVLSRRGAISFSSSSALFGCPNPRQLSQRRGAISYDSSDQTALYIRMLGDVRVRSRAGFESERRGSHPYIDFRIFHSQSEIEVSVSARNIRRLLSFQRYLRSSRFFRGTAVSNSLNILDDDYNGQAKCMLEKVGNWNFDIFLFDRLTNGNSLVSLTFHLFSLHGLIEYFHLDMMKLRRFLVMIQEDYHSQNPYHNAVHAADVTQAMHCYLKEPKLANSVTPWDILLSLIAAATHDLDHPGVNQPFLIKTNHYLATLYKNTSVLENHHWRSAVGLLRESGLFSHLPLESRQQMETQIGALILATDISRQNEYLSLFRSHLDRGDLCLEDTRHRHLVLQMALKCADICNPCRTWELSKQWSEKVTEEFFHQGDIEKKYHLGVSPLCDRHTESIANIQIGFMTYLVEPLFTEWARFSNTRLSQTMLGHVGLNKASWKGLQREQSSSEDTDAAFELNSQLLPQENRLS
Nature of the data set: In vitro PDE assay. Type of data set: biochemical. The essentials:
as §2

Another data set addresses T5, PDE10A2 (Homo sapiens, UniProt Q9Y233).
T5 construct: purchased BPS Biosciences (San Diego, Calif.)
Nature of the data set: In vitro PDE assay. The class given is biochemical. The procedure, abridged: as §2

The next data set has as its target T6, PDE11A4 (Homo sapiens, UniProt Q9HCR9).
T6 construct: purchased BPS Biosciences (San Diego, Calif.)
Nature of the data set: In vitro PDE assay. Type of data set: biochemical. The procedure, abridged:
as §2

The target in another data set is T7, PDE8A1 (Homo sapiens, UniProt O60658).
T7 construct: purchased BPS Biosciences (San Diego, Calif.)
Nature of the data set: In vitro PDE assay. The class given is biochemical. The essentials: as §2

The next data set deals with T8, PDE1A1 (Homo sapiens, UniProt P54750).
T8 construct: purchased BPS Biosciences (San Diego, Calif.)
Briefly: In vitro PDE assay. Type of data set: biochemical. The essentials: as §2

The next data set addresses T9, PDE9A1 (Homo sapiens, UniProt O76083).
T9 construct: purchased BPS Biosciences (San Diego, Calif.)
Briefly: In vitro PDE assay. Type of data set: biochemical. The procedure, abridged:
as §2

Another data set deals with T10, PDE2A (Homo sapiens, UniProt O00408).
T10 construct: purchased BPS Biosciences (San Diego, Calif.)
Briefly: In vitro PDE assay. Type of data set: biochemical. The essentials:
as §2

The next data set concerns Dengue. Nature of the data set: Dengue viral CPE assay. Type of data set: cell-based. The text has this: The small molecule PDE4 inhibitors of the presently disclosed subject matter are actively anti-viral in viral CPE (cytopathic effect) assays versus RSV (respiratory syncytial virus), Dengue (1 experiment), and BVDV (bovine viral diarrhea virus, surrogate for human hepatitis C virus). Of note, PDE4 inhibitors are now approved for COPD, for which RSV may be an exacerbating factor).

For a further data set, the system named is cAMP. Briefly: FRET-based cAMP sensors in NIH3T3 cells. Type of data set: cell-based. The conditions noted are these: 2 μM. The text has this:
To visualize changes in cAMP concentrations in individual cells and cellular regions, we utilized two distinct FRET (fluorescence resonance energy transfer)-based cAMP sensors: the Epac-FRET sensor (mTurquoiseΔ-Epac(CD, ΔDEP)-cp173 Venus-Venus)^35, which detects cytosolic cAMP concentration and the PKA-based cAMP sensor (PKAC-YFP and PKARII-CFP combination), which has been used to document changes in local cAMP levels in the centrosome and basal body.

The next data set relates to NIH3T3 cells. Nature of the data set: Cell viability of parental NIH3T3 cells. Type of data set: cell-based.
Data set [1] deals with RSV (respiratory syncytial virus). Briefly: RSV CPE / plaque assay in HEp-2 cells. Type of data set: cell-based. As to the method: In Table 11, the results of CPE assays following infection of human epidermoid cancer cells (HEp-2) with RSV. Even at 10,000 higher viral titers, our compound achieved complete inhibition at 10 μM. At 1 and 3 μM, the compound achieved over 98% reduction. The exemplary compound alone caused no apparent cytotoxicity at these concentrations.

The next data set deals with panel of 21 phosphatases. Briefly: Phosphatase profiling assay (Millipore). Type of data set: biochemical, human. The protocol: as §1

Structures are written as SMILES. Several values for one entry are separate records, joined by “and”; a condition that tells them apart may be missing. Equal values may be shown once. Entries after “also recorded” stand apart in the source; their conditions may differ. Bounds are passed on as bounds.

Sequence of PDE4D3-AKAP450 (Q08499 1-673 isoform Q08499-2): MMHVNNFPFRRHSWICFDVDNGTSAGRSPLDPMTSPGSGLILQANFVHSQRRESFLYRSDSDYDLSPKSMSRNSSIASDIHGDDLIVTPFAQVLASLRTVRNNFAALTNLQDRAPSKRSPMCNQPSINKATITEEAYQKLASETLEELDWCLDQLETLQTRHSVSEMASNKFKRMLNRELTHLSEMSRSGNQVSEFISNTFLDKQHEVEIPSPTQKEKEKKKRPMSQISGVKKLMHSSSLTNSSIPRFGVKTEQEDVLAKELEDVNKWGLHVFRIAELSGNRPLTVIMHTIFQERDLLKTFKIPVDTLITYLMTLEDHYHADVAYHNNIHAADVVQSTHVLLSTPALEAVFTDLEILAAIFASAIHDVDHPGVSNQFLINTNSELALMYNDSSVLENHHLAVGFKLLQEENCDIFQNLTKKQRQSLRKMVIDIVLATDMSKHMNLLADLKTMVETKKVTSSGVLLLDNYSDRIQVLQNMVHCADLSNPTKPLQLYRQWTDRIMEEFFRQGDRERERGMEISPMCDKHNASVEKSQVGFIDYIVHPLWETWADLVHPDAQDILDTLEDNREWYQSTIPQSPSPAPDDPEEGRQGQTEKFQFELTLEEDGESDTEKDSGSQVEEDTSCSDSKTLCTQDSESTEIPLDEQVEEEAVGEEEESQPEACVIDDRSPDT
Sequence of PDE4D3-AKAP450 (Q70FJ1 whole entry partner): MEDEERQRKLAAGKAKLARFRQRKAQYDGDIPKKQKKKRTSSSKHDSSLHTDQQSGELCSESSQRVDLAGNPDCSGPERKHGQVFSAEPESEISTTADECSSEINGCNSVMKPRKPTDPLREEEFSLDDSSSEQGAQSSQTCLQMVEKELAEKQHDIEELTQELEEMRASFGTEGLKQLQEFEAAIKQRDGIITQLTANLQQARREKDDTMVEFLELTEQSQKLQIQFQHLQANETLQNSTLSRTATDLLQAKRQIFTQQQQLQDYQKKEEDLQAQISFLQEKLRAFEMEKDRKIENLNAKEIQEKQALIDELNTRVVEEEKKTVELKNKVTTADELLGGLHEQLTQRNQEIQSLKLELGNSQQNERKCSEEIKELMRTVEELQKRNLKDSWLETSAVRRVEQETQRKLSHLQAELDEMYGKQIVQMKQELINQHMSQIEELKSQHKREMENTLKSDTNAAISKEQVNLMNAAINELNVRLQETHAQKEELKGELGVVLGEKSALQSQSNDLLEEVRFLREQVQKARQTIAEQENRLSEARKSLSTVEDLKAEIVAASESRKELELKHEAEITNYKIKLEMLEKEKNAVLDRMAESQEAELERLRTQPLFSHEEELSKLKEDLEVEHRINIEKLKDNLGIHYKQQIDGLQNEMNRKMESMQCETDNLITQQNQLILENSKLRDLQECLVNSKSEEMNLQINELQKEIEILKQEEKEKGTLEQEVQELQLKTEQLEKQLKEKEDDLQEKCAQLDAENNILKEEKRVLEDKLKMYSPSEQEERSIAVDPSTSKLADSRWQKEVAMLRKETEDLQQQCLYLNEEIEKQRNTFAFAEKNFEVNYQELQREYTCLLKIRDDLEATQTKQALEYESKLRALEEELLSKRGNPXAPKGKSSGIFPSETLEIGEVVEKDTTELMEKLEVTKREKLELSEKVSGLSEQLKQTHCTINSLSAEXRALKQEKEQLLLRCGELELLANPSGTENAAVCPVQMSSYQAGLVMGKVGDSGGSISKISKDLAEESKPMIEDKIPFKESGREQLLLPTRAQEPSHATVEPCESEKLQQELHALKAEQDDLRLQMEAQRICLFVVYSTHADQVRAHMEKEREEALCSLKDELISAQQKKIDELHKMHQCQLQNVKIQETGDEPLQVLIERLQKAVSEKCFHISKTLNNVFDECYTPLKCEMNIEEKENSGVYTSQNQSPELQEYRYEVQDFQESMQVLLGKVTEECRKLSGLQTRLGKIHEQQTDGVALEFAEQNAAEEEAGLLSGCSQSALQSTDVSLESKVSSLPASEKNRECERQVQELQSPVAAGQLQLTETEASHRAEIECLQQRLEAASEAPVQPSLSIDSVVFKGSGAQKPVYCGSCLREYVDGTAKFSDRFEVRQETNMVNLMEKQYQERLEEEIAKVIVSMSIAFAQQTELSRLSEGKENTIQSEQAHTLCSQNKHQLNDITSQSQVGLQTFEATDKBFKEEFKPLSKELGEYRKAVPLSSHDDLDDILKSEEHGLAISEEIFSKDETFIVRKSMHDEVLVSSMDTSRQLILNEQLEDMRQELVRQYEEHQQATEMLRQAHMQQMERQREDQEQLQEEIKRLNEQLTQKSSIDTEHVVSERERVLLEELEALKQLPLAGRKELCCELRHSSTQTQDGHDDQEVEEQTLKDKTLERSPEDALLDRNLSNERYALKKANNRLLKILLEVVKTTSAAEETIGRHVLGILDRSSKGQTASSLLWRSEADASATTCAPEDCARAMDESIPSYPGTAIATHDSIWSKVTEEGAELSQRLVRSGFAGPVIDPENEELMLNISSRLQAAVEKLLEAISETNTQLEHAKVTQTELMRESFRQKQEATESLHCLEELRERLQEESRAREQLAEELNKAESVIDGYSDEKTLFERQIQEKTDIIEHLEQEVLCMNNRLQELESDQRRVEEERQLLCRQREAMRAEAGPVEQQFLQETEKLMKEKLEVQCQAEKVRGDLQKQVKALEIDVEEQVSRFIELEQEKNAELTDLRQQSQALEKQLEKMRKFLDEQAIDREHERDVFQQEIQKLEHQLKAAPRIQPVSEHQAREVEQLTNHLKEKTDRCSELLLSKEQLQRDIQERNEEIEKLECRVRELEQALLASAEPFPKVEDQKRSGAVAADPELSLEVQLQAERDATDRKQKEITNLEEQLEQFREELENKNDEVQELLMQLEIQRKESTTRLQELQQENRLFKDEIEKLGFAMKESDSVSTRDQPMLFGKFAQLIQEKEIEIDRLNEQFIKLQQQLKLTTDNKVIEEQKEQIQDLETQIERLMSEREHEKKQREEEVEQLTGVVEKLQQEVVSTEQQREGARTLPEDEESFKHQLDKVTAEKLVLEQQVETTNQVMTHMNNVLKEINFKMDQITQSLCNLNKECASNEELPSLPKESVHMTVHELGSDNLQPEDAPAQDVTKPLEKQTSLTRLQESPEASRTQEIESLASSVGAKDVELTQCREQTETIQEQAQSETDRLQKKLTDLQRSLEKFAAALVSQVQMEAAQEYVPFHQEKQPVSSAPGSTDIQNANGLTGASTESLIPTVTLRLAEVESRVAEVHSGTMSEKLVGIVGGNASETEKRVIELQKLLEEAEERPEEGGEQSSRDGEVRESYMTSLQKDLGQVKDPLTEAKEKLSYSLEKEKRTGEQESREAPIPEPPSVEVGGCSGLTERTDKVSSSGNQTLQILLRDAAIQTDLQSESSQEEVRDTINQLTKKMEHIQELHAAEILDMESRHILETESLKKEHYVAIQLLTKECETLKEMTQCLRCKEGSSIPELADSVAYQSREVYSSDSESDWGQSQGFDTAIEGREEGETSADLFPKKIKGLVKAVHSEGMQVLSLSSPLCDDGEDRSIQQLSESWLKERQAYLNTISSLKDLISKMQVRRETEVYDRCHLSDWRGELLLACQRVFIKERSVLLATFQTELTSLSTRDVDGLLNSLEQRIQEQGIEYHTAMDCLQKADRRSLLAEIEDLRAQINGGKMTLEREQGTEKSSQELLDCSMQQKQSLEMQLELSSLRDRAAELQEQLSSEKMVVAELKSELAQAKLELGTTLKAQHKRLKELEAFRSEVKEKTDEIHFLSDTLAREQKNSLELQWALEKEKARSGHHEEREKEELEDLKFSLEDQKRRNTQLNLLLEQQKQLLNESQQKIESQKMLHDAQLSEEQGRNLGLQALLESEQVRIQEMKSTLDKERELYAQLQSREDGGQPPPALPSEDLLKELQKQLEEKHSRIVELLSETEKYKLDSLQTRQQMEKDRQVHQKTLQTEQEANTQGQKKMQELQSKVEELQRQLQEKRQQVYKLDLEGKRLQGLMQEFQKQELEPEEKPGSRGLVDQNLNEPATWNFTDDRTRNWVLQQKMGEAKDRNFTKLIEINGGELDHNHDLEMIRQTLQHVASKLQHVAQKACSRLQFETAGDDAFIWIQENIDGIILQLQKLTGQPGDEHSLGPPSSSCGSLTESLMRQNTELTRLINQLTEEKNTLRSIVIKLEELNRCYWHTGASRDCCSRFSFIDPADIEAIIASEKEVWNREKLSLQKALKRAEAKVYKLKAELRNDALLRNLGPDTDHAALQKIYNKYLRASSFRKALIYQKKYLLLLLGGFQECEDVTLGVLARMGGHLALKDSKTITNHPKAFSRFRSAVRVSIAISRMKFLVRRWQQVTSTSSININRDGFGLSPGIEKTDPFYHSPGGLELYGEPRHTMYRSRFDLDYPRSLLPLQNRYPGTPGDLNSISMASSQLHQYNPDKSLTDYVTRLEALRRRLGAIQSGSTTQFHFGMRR

For the compound `C=C(C)Cn1c(SCC(=O)c2cccs2)nc2sc3c(c2c1=O)CCCC3` [EGM, Eggmanone], the “increase in contractility over vehicle control” value in the data set on mouse cardiomyocytes is 50%. Further, in the data set on hiPSC-CMs, the Contractile function entry was “increased contractile function”. Also, the Normalized body weight entry in the data set with RSV is “slightly lower than that with control”. For the same compound, the “Lung viral titer (plaque assay)” value in the data set with RSV (day 3) is reported as “significantly reduced viral titer at day 3”. In addition, the “Vessel diameter after pre-constriction” value in the data set with mouse aorta is reported as “little to no contraction or dilation of the vessel; also recorded: had no effect on the vessel”.

As a reminder, the IC50 is the midpoint of a concentration-inhibition curve. As usually defined, the inhibition is the share of the control response that was lost under treatment. Low values mean little suppression, high ones strong suppression. `C=C(C)Cn1c(SCC(=O)c2cccs2)nc2sc3c(c2c1=O)CCCC3` [Eggmanone, 3-(2-methylallyl)-2-((2-oxo-2-(thiophen-2-yl)ethyl)thio)-5,6,7,8-tetrahydrobenzo[4,5]thieno[2,3-d]pyrimidine-4(3H)-one]: the “agonist or antagonist activity” value in the data set on panel of 158 GPCRs, in the data set with panel of 442 kinases and with panel of 21 phosphatases was “did not exhibit significant agonist or antagonist activity” each time. The significant inhibition in the data set with panel of 158 GPCRs, in the data set with panel of 442 kinases and in the data set with panel of 21 phosphatases was over 10 µM each time. Also, the IC50 is 800 to 3000 nM and 800 to 3750 nM in the data set with PDE4 isoforms; over 50 µM at PDE3A; over 50 µM against PDE11A4; over 50 µM against PDE2A. For the same compound, the “PDE4D3 localization / physical association with AKAP450” value on PDE4D3-AKAP450 is “does not disrupt PDE4D3 localization; also recorded: did not disrupt PDE4D3 localization or physical association with AKAP450”. The inhibition at 50 µM at PDE5A1, at PDE6C, against PDE7A1, on PDE10A2, against PDE8A1 and at PDE1A1 was under 10% throughout. Moreover, on PDE9A1, the inhibition at 50 µM was under 10%. Further, in the data set on Dengue, the “Antiviral effect on Dengue” value is on record as “has antiviral effects”. In addition, in the data set on cAMP, the “Cytosolic FRET signal (Epac-FRET sensor)” value is “had no effect on the cytosolic FRET signal”. For the same compound, the “cAMP levels by PKA-based cAMP sensor” value with cAMP was “increased cAMP levels only at discrete regions”. Moreover, the “Viability of NIH3T3 cells” value in the data set on NIH3T3 cells is recorded as “had no effect on parental NIH3T3 cells”. Further, the “Antiviral effect on RSV” value in [1] was “has antiviral effects”.
